Test results: publication PMC9266750, “Catalase Inhibition by Aminoalkanol Derivatives with Potential Anti-Cancer Activity—In Vitro and In Silico Studies Using Capillary Electrophoresis Method” (International Journal of Molecular Sciences, 2022)
Like-named read-outs stand apart in the source and are kept apart here.

Assays:
[1] = target: T1, Catalase from human erythrocytes (EC 1.11.1.6, CAT) (Homo sapiens, UniProt P04040); assay: Catalase (CAT) inhibition kinetics by capillary electrophoresis (hydrogen peroxide/guaiacol/tetraguaiacol); type: biochemical; conditions: for Type of inhibition: from Km and Vmax versus control system; for IC50: from activity (%) versus inhibitor concentration plots, one value per compound; for Slope (slope angle of Lineweaver–Burk line): n = 6; for tetraguaiacol (TGCOL) concentration in the presence of inhibitor / guaiacol (GCOL) concentration in the presence of inhibitor: hydrogen peroxide 10 mM, 20.00 mM GCOL; for tetraguaiacol (TGCOL) concentration in the presence of inhibitor: without inhibitors 0.00 mM; for guaiacol (GCOL) concentration in the presence of inhibitor: without inhibitors 20.00 mM
T1 construct: Catalase from human erythrocytes (EC 1.11.1.6, CAT); purchased Sigma–Aldrich (Poznań, Poland); host or cells: human erythrocytes (natural source)
T1 sequence (P04040 2-527 limits assumed): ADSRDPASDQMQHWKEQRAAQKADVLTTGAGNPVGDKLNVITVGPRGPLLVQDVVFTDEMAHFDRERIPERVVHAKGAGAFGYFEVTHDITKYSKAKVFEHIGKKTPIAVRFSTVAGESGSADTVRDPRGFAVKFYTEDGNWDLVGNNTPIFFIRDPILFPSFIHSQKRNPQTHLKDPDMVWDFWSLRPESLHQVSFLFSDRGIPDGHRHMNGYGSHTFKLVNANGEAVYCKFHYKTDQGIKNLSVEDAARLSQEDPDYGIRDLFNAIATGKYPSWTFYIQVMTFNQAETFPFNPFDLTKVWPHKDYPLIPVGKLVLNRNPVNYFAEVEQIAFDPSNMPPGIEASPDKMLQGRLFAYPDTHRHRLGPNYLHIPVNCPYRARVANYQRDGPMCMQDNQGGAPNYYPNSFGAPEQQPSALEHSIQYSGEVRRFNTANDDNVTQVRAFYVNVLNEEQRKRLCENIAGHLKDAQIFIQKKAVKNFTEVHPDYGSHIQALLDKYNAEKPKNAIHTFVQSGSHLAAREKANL
From the text: In this study, we used the capillary electrophoresis (CE) method developed by us to determine the tetraguaiacol complex as a product of the catalase-catalyzed reaction (CAT) (Table 1) in the presence of the enzyme, hydrogen peroxide (HPER) (as a substrate), guaiacol (GCOL) and inhibitors (I), (II), (III) and (IV) (Figure 2). Based on this method, we investigated changes in the concentration of guaiacol reacting with changes in the concentration of hydrogen peroxide depending on the activity of catalase and changes in the concentrations of the formed tetraguaiacol as the final reaction product. The developed CE technique made it possible to measure all the parameters thanks to the possibility of using three wavelengths simultaneously in one analysis. Investigations of kinetic parameters were based on mutual measurements of concentration changes between guaiacol (as the second reactant reacting with hydrogen peroxide) and tetraguaiacol as the final reaction product.
For the development of this method, we optimized the buffer pH, separating background electrolyte (BGE) concentration, wavelength, temperature, and voltage in accordance with the earlier procedure. […]. All these separation systems were tested to achieve the best separation parameters, resolution, and analysis time for all components in the reaction mixture. The best separation of tetraguaiacol, guaiacol, catalase (CAT) and compounds (I), (II), (III), (IV) was obtained with 100 mM phosphate buffer (pH 7.5). The measurements were taken at 214, 274 and 470 nm with a fused-silica capillary (effective length: 20 cm, diameter: 50 μm). The capillary temperature was 25 °C, which allowed the best resolution to be achieved. Separation was carried out at 20 kV. Each sample was added to the capillary under hydrodynamic injection. Average detection times for guaiacol (GCOL), compounds (I), (II), (III), (IV), tetraguaiacol (TGCOL) and CAT were […], respectively (Figure 2). […]. […]
Electrophoretic separations of catalase (CAT), hydrogen peroxide, guaiacol (GCOL) tetra guaiacol (TGCOL), and inhibitors (I), (II), (III) and (IV) of catalase, by CE was performed using 100 mM (NaH2PO4) phosphate buffer as a background electrolyte (BGE) adjusted with 100 mM sodium hydroxide to the pH = 7.5. The samples were injected under 5 psi pressure for 3 s. The experiments were performed under constant current conditions (97 μA). The separation temperature was 25 °C, and the detection wavelengths were set at 214, 274 and 470 nm. Before the assay, the capillary was conditioned according to the previously described procedure.
Sample mixtures containing catalase (CAT), hydrogen peroxide (HPER), guaiacol (GCOL), tetra guaiacol (TGCOL), and inhibitors (I), (II), (III) and (IV) were introduced automatically by pressure injection (with 5 psi pressure for 3 s on the sample solution). At the day’s end, vials with anode and a cathode buffer were emptied and a running buffer was filled again at the start of the next day before the analysis. The detector wavelength was fixed at 470 nm. Hydrogen peroxide was not detected at wavelength of 470 nm. The appropriate parameters for analyzing CAT, TGCOL and (I), (II), (III) and (IV) inhibitors were as follows: phosphate buffer (pH = 7.5) of 100 mM concentration, 25 °C temperature, and 20 kV voltage.
The CAT in the amount of 10 μg was dissolved in the 10 mL 100 mM phosphate buffer, pH 7.5 and divided into several portions, which were stored at −20 °C. One aliquot was thawed each day and the CAT activity was checked. For kinetic studies a catalase solution with a final concentration of 1 µg/mL was prepared. The working solutions of GCOL, TGCOL and HPER in appropriate concentrations were prepared immediately before use by dilution with the phosphate buffer according to the previously described procedure. […]

alkaline phosphatase = conditions: cited from earlier work
acid phosphatase = tested on: acid phosphatase; design: method as in PMID 34769193; conditions: cited from earlier work
acetylcholinesterase = conditions: cited from earlier work
CAT = conditions: cited from earlier work
[2] = inhibitor 2.50 mM, without inhibitor 1.26 ± 0.02
[3] = inhibitor 2.50 mM, without inhibitor 23.31 ± 0.04

Compound	Type of inhibition [1]	IC50 [1] [mM]	Vmax [1, 2] [mM/min]	Slope (slope angle of Lineweaver–Burk line) [1, 3]	Vmax ([1]; inhibitor 5.00 mM) [mM/min]	Slope (slope angle of Lineweaver–Burk line) ([1]; inhibitor 5.00 mM)	Vmax ([1]; inhibitor 10.00 mM) [mM/min]	Slope (slope angle of Lineweaver–Burk line) ([1]; inhibitor 10.00 mM)	Vmax ([1]; inhibitor 15.00 mM) [mM/min]	Slope (slope angle of Lineweaver–Burk line) ([1]; inhibitor 15.00 mM)	Vmax ([1]; inhibitor 20.00 mM) [mM/min]	tetraguaiacol (TGCOL) concentration in the presence of inhibitor ([1]; inhibitor 20.00 mM) [mM]	guaiacol (GCOL) concentration in the presence of inhibitor ([1]; inhibitor 20.00 mM) [mM]	Slope (slope angle of Lineweaver–Burk line) ([1]; inhibitor 20.00 mM)	inhibition of enzymatic activity (alkaline phosphatase)	inhibition of enzymatic activity (acid phosphatase)	inhibition of enzymatic activity (acetylcholinesterase)	IC50 (CAT) [mM]	IC50 (CAT; specific catalase inhibitor) [mM]
CN(C)CC(O)CN1C(=O)C2C(C1=O)C1(C)C(=O)C2(C)C(c2ccccc2)=C1c1ccccc1 (stereo not shown) [Compound (IV)]	Competitive	12.2 ± 0.06	1.25 ± 0.03	24.33 ± 0.06	1.24 ± 0.06	25.00 ± 0.05	1.24 ± 0.06	26.24 ± 0.04	1.23 ± 0.05	27.30 ± 0.05	1.26 ± 0.02	4.39	15.61	29.27 ± 0.03	inhibited	inhibited	inhibited	–	–
[N-]=[N+]=[N-] [sodium azide]	–	–	–	–	–	–	–	–	–	–	–	–	–	–	–	–	–	0.025	–
Nc1nc[nH]n1 [3-Amino-1,2,4-triazole]	–	–	–	–	–	–	–	–	–	–	–	–	–	–	–	–	–	–	6
CCC12C(=O)C(CC)(C(c3ccccc3)=C1c1ccccc1)C1C(=O)N(CC(O)CN(C)C)C(=O)C12 (stereo not shown) [Compound (II)]	Competitive	12.8 ± 0.07	1.24 ± 0.06	23.70 ± 0.05	1.24 ± 0.06	24.24 ± 0.05	1.26 ± 0.03	25.30 ± 0.06	1.25 ± 0.04	26.00 ± 0.04	1.24 ± 0.04	2.44	17.56	27.06 ± 0.05	inhibited	inhibited	inhibited	–	–
CC(C)NCC(O)CN1C(=O)C2C(C1=O)C1(C)C(=O)C2(C)C(c2ccccc2)=C1c1ccccc1 (stereo not shown) [Compound (III)]	Competitive	10.3 ± 0.03	1.24 ± 0.07	25.09 ± 0.04	1.25 ± 0.08	25.84 ± 0.05	1.24 ± 0.07	28.60 ± 0.04	1.24 ± 0.09	–	1.25 ± 0.02	8.29	11.71	32.68 ± 0.02	inhibited	inhibited	inhibited	–	–
CCC12C(=O)C(CC)(C(c3ccccc3)=C1c1ccccc1)C1C(=O)N(CC(O)CNC(C)C)C(=O)C12 (stereo not shown) [Compound (I)]	Competitive	11.4 ± 0.05	1.25 ± 0.04	24.72 ± 0.05	1.24 ± 0.07	25.43 ± 0.05	1.25 ± 0.05	27.33 ± 0.06	1.24 ± 0.07	28.62 ± 0.06	1.25 ± 0.05	5.86	14.14	30.75 ± 0.04	inhibited	inhibited	inhibited	–	–
NO [hydroxylamine]	–	–	–	–	–	–	–	–	–	–	–	–	–	–	–	–	–	0.02	–
